Assays:
[1] = tested on: GPDH (glycerol-3-phosphate-dehydrogenase); test: Measurement of GPDH activity in differentiating 3T3-L1 preadipocytes; assay type: cell-based; details: FIG. 5; compared with no addition
Protocol: (§1) Cell Culture: 3T3-L1 preadipocytes were incubated using DMRM culture medium containing 10% (by volume) of FBS at 37° C. in the presence of CO2 (5%). In this connection, as the FBS, one which had been inactivated at 56° C. for 30 minutes was used. As the cells, those which were unused (naïve) and which had been kept in liquid nitrogen were used in each experiment. On a 96 well microplate, 5×10^4 cells of the 3T3-L1 preadipocytes were seeded per well and pre-incubated for 48 hours.
(§2) Then, the culture medium was removed from the wells, and DMEM culture medium containing insulin (10 μg/ml), dexametazone (0.25 μg/ml) and IBMX (0.5 mM) was added to the wells, and incubation was further performed for 48 hours. Thereafter, differentiation to adipocytes was induce while repeating medium replacement at intervals of 4 days with the use of DMEM culture medium containing 5 μg/ml of insulin only. In this procedure, fucoxanthin was added to the culture medium to examine influence thereof on the differentiation induction.
Measurement of GPDH Activity: For measurement of GPDH (glycerol-3-phosphate-dehydrogenase) activity, a GDP H activity measuring kit (manufactured by Hokudo Co., Ltd.) was used. Specifically, 3T3-L1 preadipocytes were pre-incubated on a 24 well microplate) for 48 hours, and then differentiation to adipocytes was induced in the same manner as described above. […]

[2] = tested on: KK-Ay mice; test: Animal experiments: KK-Ay mice fed feed containing fucoxanthinol; assay type: in vivo
Protocol: Animals and Feed: For the animal experiments, KK-Ay mice (female; 3-week-old) were used. Feed for the experiments was prepared in accordance with AIN-93G composition (formulation). Amount of lipid in the feed was 13.5%. In the case where fucoxanthinol was added, 0.2% of the lipid in the feed was replaced with fucoxanthinol. After the preparation, the feed was immediately vacuum-packed and stored at −20° C. or lower until feeding.
Breeding and Analysis: Preliminary Breeding was conducted for a week using the feed for the control group, and individuals which grew with no problem were divided into groups each consisting of 6 mice in such a manner that there were no substantial unevennesses in body weight among the groups. With respect to each of the groups, two mice were housed and bred in each plastic cage spread with sterilized wood chips to cover the floor. In the breeding cage, temperature and humidity were kept at 23±1° C. and 50%, respectively, and each of light and dark periods was 12 hours. The mice were allowed to freely take (ingest) the feed and water, and the breeding with each of the feeds for the experiments was carried out for 24 days.
After termination of the feeding period, the mice were fasted for 12 hours. Thereafter, blood samples were collected from neck vessels in the presence of EDTA under anesthesia with (ethyl) ether. After the collection of blood samples, organs were immediately harvested and washed well with physiological saline to sufficiently clear blood therefrom. Livers were weighed and then stored at −40° C. or lower until subjected to analyses. Leptin concentrations and blood-sugar levels in blood were measured using a commercially available kit.

[3] = tested on: 3T3-L1 preadipocytes; test: Quantitative determination of intracellular lipids with Oilred O during differentiation of 3T3-L1 preadipocytes to adipocytes; assay type: cell-based; details: FIG. 3 and FIG. 4; added to culture medium during differentiation induction
Protocol: as §1
as §2, with “In this procedure, fucoxanthin was added to the culture medium to examine influence thereof on the differentiation induction.” left out
Quantitative Determination of Intracellular Lipids with Oilred O: The cells incubated in the 96 well microplate were immobilized with formalin, and then an oilred O solution was added thereto to stain lipids in the cells. […] Subsequently, isopropanol was added to each of the wells to elute the pigment (colorant), and absorbance, i.e., optical density at 490 nm was measured using a microplate reader.

[4] = tested on: adipocytes (fat cells); details: according to Non-Patent Document 2; cited from earlier work
[5] = tested on: large intestine cancer cells; details: according to Non-Patent Document 1; cited from earlier work
[6] = 24 days feeding, versus control group
[7] = after 24 days feeding, versus control group

Molecule | relative GPDH activity (relative amount of adipocytes, preadipocytes = 1) [1] | weight of visceral fat per 100 g of body weight ([2]; FIG. 6, 0.2% of feed lipid replaced, 24 days, versus control group) | leptin concentration in blood ([2]; FIG. 7, 24 days feeding, versus control group) | blood sugar level ([2]; FIG. 8, 24 days feeding, versus control group) | fat (lipid) accumulation associated with differentiation of 3T3-L1 preadipocytes to adipocytes (optical density at 490 nm, Oilred O) [3] | differentiation suppressing activity on adipocytes [4] | amount of feed intake [2, 6] | increase in body weight [2, 6] | weight of hepatic lipid [2, 7] | weight of liver [2, 7] | weight of small intestine [2, 7] | abnormalities in feed intake, glossiness of hair or action ([2]; breeding period) | antiproliferative activity / proliferation of large intestine cancer cells [5]
C\C(C=C=C1C(C)(C)C[C@H](O)C[C@@]1(C)O)=C/C=C/C(C)=C/C=C/C=C(C)/C=C/C=C(\C)C(=O)C[C@@]12O[C@]1(C)C[C@@H](O)CC2(C)C [fucoxanthinol] | lowered | significantly reduced | significantly reduced | reduced | markedly controlled | – | – | – | – | – | – | – | –
fucoxanthin | no significant differences | – | – | – | apparently lower than that of fucoxanthinol | has differentiation suppressing activity on adipocytes | no significant differences | no significant differences | no significant differences | no significant differences | no significant differences | no abnormalities | far stronger antiproliferative activity than that of troglytazone
